This note sets out measurements from patent publication US20250017211A1, “SOLID P[…] CONTROL COMPOSITIONS AND METHODS” (Control Solutions, Inc., priority 2021, published 2025).

Molecules are shown by their SMILES.

Assay [1] relates to white grubs (Japanese beetles and masked chafers). Nature of the assay: Preventive control of white grubs in Kentucky bluegrass, second study. The assay is classed as in vivo, scarab beetle larvae. The settings on record: instant (second) study. The protocol: As with the study of Example 5 above, the purpose of this study was to evaluate rates and timings of novaluron and a wetting agent (Syringe) for controlling white grubs in turfgrass. A trial was conducted on Kentucky bluegrass maintained at a height of 7.6 cm. A randomized complete block design with 4 replications of 5′×5′ plots were used. Treatments were applied and all plots were watered in (0.1″) immediately after application. Treatments and application dates were as described in Table 4. Caged Japanese beetle adults (20 male: 20 female) were placed within each plot. Plots were assessed using a sod cutter set to 3″ depth. All scarab beetle larvae recovered were identified to genus level.

For assay [2], the system named is all white grubs (scarab larvae). Nature of the assay: Preventive control of scarab larvae in Kentucky bluegrass, first study, all white grubs. Format: in vivo, scarab beetle larvae. The note with it: study of Example 5. The text has this:
The primary objectives of this study were to evaluate the influence of application rate and timing on the efficacy of novaluran applied preventively against scarab larvae in cool-season turfgrass. The experiment was located on a stand of turfgrass consisting primarily of Kentucky bluegrass maintained at 7.6 cm. Plots measuring 5×5 ft were arranged in a randomized complete-block design with 2 ft alleys between plots. […] Each treatment was replicated 4 times. Plots were irrigated Immediately after each set of applications (0.1″).
Japanese beetle larval infestations were created by driving two, 20.3 cm diameter PVC cylinders into each plot along its mid-line and caging one group of 40 Japanese beetle adults (50:50 sex ratio) within each cylinder during early July. Scarab larval populations were assessed Oct. 12-16, 2019 using a sod cutter to remove a strip of sod lying directly beneath the caging area of each plot and examining the soil to a depth of 3 inches. All scarab larvae recovered from the plots were identified to genus level, counted and recorded. Variation in scarab larval populations was examined using main effects ANOVA and treatment means were compared using Fisher's LSD test (α=0.05). Treatments and application dates were as described in Table 3.

Take `O=C(NC(=O)c1c(F)cccc1F)Nc1ccc(OC(F)(F)C(F)OC(F)(F)F)c(Cl)c1` (stereo not shown) [Novaluron, novaluron]: the Control in assay [1] (0.675 lb ai/A) is given as 84-90%; in assay [1] (0.9 lb ai/A), 84-90%; in assay [2] (0.675 lb ai/A) it was 46-72%; in assay [2] (0.9 lb ai/A), 45-56%.
